Data reported in ChEMBL document CHEMBL1138572, “The synthesis of N-phenoxyethyl-1-substituted-1,2,3,4-tetrahydroisoquinolines and their alpha1-adrenoceptor blocking activity” (Eur J Med Chem, 2009).

Biological target: T1, Adrenergic receptor alpha-1 (Rattus norvegicus, UniProt P15823+P23944+P43140)
T1 sequence (P15823 whole entry): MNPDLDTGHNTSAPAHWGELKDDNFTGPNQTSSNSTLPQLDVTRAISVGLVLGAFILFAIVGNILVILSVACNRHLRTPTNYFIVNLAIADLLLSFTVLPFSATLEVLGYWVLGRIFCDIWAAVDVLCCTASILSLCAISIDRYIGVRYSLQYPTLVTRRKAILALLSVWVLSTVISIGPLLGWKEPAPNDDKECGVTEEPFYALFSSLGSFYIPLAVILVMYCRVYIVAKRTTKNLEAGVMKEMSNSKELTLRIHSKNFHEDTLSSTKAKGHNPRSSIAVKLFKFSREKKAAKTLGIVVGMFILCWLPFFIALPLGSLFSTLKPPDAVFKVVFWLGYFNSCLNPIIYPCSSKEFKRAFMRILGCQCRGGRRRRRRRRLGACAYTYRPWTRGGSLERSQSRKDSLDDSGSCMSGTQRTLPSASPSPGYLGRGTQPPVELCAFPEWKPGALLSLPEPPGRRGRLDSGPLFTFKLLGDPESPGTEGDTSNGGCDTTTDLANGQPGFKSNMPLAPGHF
T1 sequence (P23944 whole entry): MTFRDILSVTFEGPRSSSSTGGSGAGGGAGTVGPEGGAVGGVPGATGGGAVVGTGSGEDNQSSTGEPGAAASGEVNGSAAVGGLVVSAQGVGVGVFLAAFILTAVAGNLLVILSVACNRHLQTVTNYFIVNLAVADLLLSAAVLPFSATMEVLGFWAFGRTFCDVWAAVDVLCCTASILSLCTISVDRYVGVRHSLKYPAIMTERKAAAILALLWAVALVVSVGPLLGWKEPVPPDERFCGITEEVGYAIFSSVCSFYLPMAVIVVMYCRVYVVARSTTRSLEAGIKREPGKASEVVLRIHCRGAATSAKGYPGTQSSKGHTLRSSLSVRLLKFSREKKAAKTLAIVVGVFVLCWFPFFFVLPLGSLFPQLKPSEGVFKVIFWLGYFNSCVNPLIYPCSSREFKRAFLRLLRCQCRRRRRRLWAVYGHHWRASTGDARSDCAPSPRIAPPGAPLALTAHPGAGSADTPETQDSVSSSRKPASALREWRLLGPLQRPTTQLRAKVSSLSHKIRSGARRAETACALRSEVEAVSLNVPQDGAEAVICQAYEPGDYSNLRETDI
T1 sequence (P43140 whole entry): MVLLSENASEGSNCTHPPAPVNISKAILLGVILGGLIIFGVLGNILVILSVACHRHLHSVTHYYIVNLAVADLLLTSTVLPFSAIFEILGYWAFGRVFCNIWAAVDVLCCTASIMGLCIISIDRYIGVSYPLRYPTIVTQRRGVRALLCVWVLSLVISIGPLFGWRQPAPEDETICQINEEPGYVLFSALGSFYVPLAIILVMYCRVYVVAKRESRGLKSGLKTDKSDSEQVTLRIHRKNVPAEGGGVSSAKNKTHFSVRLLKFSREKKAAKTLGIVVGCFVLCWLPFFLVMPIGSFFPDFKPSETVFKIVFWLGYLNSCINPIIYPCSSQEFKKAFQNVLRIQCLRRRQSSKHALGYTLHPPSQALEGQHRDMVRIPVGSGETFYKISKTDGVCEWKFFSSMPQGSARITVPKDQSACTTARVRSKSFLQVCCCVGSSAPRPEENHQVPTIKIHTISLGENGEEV
Experiment: Antagonist activity at alpha1 adrenoceptor in Sprague-Dawley rat aorta assessed as inhibition of norepinephrine-induced contraction treated 30 mins before norepinephrine challenge

`COc1ccc2c(c1)C(c1ccccc1[N+](=O)[O-])N(CCOc1ccccc1)CC2` (stereo not drawn) was tested, and the pA2 was 8.11.
Work on `COc1ccc2c(c1)C(c1ccccc1NCCOc1ccccc1)N(CCOc1ccccc1)CC2` (stereo not drawn) yielded a pA2 of 6.72.
With `c1ccc(OCCNc2ccccc2C2c3ccccc3CCN2CCOc2ccccc2)cc1` (stereo not drawn) the pA2 was 7.71.
Compound `COc1cc2c(cc1OC)C(c1ccccc1NCCOc1ccccc1)N(CCOc1ccccc1)CC2` (stereo not drawn) has a pA2 of 8.33.
Work on `COc1cc2c(cc1OC)C(c1ccccc1N)N(CCOc1ccccc1)CC2` (stereo not drawn) yielded a pA2 of 7.66.
`COc1cc2c(cc1OC)C(c1ccccc1[N+](=O)[O-])N(CCOc1ccccc1)CC2` (stereo not drawn) gave a pA2 of 9.01.
For `COc1ccc([N+](=O)[O-])c(C2c3cc(OC)c(OC)cc3CCN2CCOc2ccccc2)c1` (stereo not drawn), the pA2 was 8.46.
`COc1ccc(N)c(C2c3cc(OC)c(OC)cc3CCN2CCOc2ccccc2)c1` (stereo not drawn) showed a pA2 of 7.51.
`Nc1ccccc1C1c2ccccc2CCN1CCOc1ccccc1` (stereo not drawn) was tested, and the pA2 was 5.46.
In the case of `COc1ccc(NCCOc2ccccc2)c(C2c3cc(OC)c(OC)cc3CCN2CCOc2ccccc2)c1` (stereo not drawn), the pA2 is reported as 8.34.
`COc1ccc2c(c1)C(c1ccccc1N)N(CCOc1ccccc1)CC2` (stereo not drawn) was tested, and the pA2 was 7.36.
Work on `O=[N+]([O-])c1ccccc1C1c2ccccc2CCN1CCOc1ccccc1` (stereo not drawn) yielded a pA2 of 7.94.
In the case of `COc1cc2c(cc1OC)C(Cc1ccccc1)N(CCOc1ccccc1)CC2` (stereo not drawn), the pA2 is reported as 8.23.
